Test results reported in publication PMC11995724, “Antibiotic target discovery by integrated phenotypic and activity-based profiling of electrophilic fragments” (Cell chemical biology, 2025).

Test: in vitro
Conditions: human, hek293t cells

| Structure (SMILES) | viability at 48 h, 25 µM [%] |
| --- | --- |
| CC(Cl)C(=O)Nc1cccc(C#N)c1 (centres unmarked) [5-B10, 2-chloro-N-(3-cyanophenyl)propanamide] | 77.3 |
| O=C(CCl)c1cnc(N2CCCCC2)s1 [10-L17, 2-chloro-1-[2-(piperidin-1-yl)-1,3-thiazol-5-yl]ethan-1-one] | 101 |
| N#CC(=CC=Cc1ccccc1[N+](=O)[O-])C(=O)Nc1ccccc1 [8-P20, 2-cyano-5-(2-nitrophenyl)-N-phenylpenta-2,4-dienamide] | 48 |
| C=CC(=O)N1CCCCC1Cn1ccnn1 (centres unmarked) [2-K07, 1-{2-[(1H-1,2,3-triazol-1-yl)methyl]piperidin-1-yl}prop-2-en-1-one] | 89.3 |
| C=CC(=O)N(C)Cc1cn(C)nc1C(C)C [3-F15, N-methyl-N-{[1-methyl-3-(propan-2-yl)-1H-pyrazol-4-yl]methyl}prop-2-enamide] | 80.7 |
| COc1cccc(NC(=O)C(C#N)=Cc2ccc(C)cc2C)c1 [8-C16, 2-cyano-3-(2,4-dimethylphenyl)-N-(3-methoxyphenyl)prop-2-enamide] | 91.5 |
| CC(C)Cn1c(N)c(C(=O)CCl)c(=O)n(C)c1=O [10-M12, 6-amino-5-(2-chloroacetyl)-3-methyl-1-(2-methylpropyl)-1,2,3,4-tetrahydropyrimidine-2,4-dione] | 97.1 |
| C=CC(=O)N1CCC(c2nnc(C)o2)CC1 [3-N04, 1-[4-(5-methyl-1,3,4-oxadiazol-2-yl)piperidin-1-yl]prop-2-en-1-one] | 87.3 |
| CC1CCCCC1NC(=O)C(C#N)=CC=Cc1ccccc1[N+](=O)[O-] (centres unmarked) [8-F12, 2-cyano-N-(2-methylcyclohexyl)-5-(2-nitrophenyl)penta-2,4-dienamide] | 36 |
| CC(Cl)C(=O)Nc1ccc(Cl)cc1C(F)(F)F (centres unmarked) [4-A14, 2-chloro-N-[4-chloro-2-(trifluoromethyl)phenyl]propanamide] | 50.2 |
| Cc1ccc(C)n1C1CCC(NC(=O)CCl)CC1 (centres unmarked) [7-F18, 2-chloro-N-[4-(2,5-dimethyl-1H-pyrrol-1-yl)cyclohexyl]acetamide] | 106 |
| CC(C)Oc1ccccc1C=C(C#N)C(=O)Nc1ccccc1 [8-M17, 2-cyano-N-phenyl-3-[2-(propan-2-yloxy)phenyl]prop-2-enamide] | 78.4 |
| Cc1ccsc1CN(C(=O)CCl)C(C)C [7-P03, 2-chloro-N-[(3-methylthiophen-2-yl)methyl]-N-(propan-2-yl)acetamide] | 0.159 |
| CC(C)C1C(=O)Nc2ccc(Cl)cc2N1C(=O)CCl (centres unmarked) [5-C11, 6-chloro-4-(2-chloroacetyl)-3-(propan-2-yl)-1,2,3,4-tetrahydroquinoxalin-2-one] | -0.0252 |
| C=CC(=O)Nc1ccc(C(=O)NCC2CSCCS2)cc1 (centres unmarked) [2-K21, N-[(1,4-dithian-2-yl)methyl]-4-(prop-2-enamido)benzamide] | 91.9 |
| C=CC(=O)N(CC)CC(=O)N1CCN(c2ccsc2C#N)CC1 [3-L05, N-{2-[4-(2-cyanothiophen-3-yl)piperazin-1-yl]-2-oxoethyl}-N-ethylprop-2-enamide] | 62.6 |
| C=CC(=O)NCC1=NOCC1 [3-G16, N-[(4,5-dihydro-1,2-oxazol-3-yl)methyl]prop-2-enamide] | 104 |
| N#CC(=Cc1ccccc1OC(F)F)C(=O)Nc1ccccc1F [8-K21, 2-cyano-3-[2-(difluoromethoxy)phenyl]-N-(2-fluorophenyl)prop-2-enamide] | 82.5 |
| N#CC(=Cc1cccs1)C(=O)Nc1nccs1 [8-G13, 2-cyano-N-(1,3-thiazol-2-yl)-3-(thiophen-2-yl)prop-2-enamide] | 110 |
| C=CC(=O)N1CCC(C(=O)N[C@H]2CCO[C@@H]2c2cccnc2)CC1 (racemic) [2-G20, rac-1-(prop-2-enoyl)-N-[(2R,3S)-2-(pyridin-3-yl)oxolan-3-yl]piperidine-4-carboxamide] | 92.2 |
| Cc1cc(CNC(=O)C(C#N)=Cc2ccco2)ccc1N(C)C [9-N09, 2-cyano-N-{[4-(dimethylamino)-3-methylphenyl]methyl}-3-(furan-2-yl)prop-2-enamide] | 113 |
| C=CC(=O)N1CCCN(S(N)(=O)=O)CC1 [3-K10, 4-(prop-2-enoyl)-1,4-diazepane-1-sulfonamide] | 98.5 |
| Cn1cc(C=C(C#N)C(=O)Nc2ccc(Oc3ccccc3)cc2)cn1 [9-M10, 2-cyano-3-(1-methyl-1H-pyrazol-4-yl)-N-(4-phenoxyphenyl)prop-2-enamide] | 109 |
| COc1cc(C(C)NC(=O)CCl)sn1 (centres unmarked) [7-H22, 2-chloro-N-[1-(3-methoxy-1,2-thiazol-5-yl)ethyl]acetamide] | 0.822 |
| O=C(CCl)C1CCCC2(CC2)C1 (centres unmarked) [10-E11, 2-chloro-1-{spiro[2.5]octan-5-yl}ethan-1-one] | 79.6 |
| CN(Cc1cc(-c2ccccc2)[nH]n1)C(=O)CCl [5-D15, 2-chloro-N-methyl-N-[(5-phenyl-1H-pyrazol-3-yl)methyl]acetamide] | 0.109 |
| CC(Cl)C(=O)N1CCN(Cc2ccc(C(F)(F)F)cc2)C(=O)C1 (centres unmarked) [6-N19, 4-(2-chloropropanoyl)-1-{[4-(trifluoromethyl)phenyl]methyl}piperazin-2-one] | 99.6 |

| Structure (SMILES) | viability at 48 h, 25 µM [%] |
| --- | --- |
| CCOC(=O)C(C#N)=Cc1ccc(N2C(=O)C=CC2=O)cc1 [10-N11, ethyl 2-cyano-3-[4-(2,5-dioxo-2,5-dihydro-1H-pyrrol-1-yl)phenyl]prop-2-enoate] | 93.1 |
| Cc1ccc2nc(-c3ccc(NC(=O)CCl)cc3)sc2c1 [6-I05, 2-chloro-N-[4-(6-methyl-1,3-benzothiazol-2-yl)phenyl]acetamide] | 3.47 |
| Cc1nn(C)c(C)c1C=C(C#N)C(=O)Nc1cccc(Cl)c1C [9-M20, N-(3-chloro-2-methylphenyl)-2-cyano-3-(1,3,5-trimethyl-1H-pyrazol-4-yl)prop-2-enamide] | 111 |
| CN1C(=O)[C@H](NC(=O)CCl)COc2ccccc21 [7-D04, 2-chloro-N-[(3R)-5-methyl-4-oxo-2,3,4,5-tetrahydro-1,5-benzoxazepin-3-yl]acetamide] | 2.02 |
| C=CC(=O)N1CCCC(S(C)(=O)=O)C1 (centres unmarked) [1-J18, 1-(3-methanesulfonylpiperidin-1-yl)prop-2-en-1-one] | 63.9 |
| C=CC(=O)Nc1ccc(OCCC)c(C)c1 [1-C20, N-(3-methyl-4-propoxyphenyl)prop-2-enamide] | 80.1 |
| Cc1cc(C(=O)CCl)c(F)cc1F [10-O03, 2-chloro-1-(2,4-difluoro-5-methylphenyl)ethan-1-one] | 2.01 |
| C=CC(=O)NC1CCCN(Cc2ccccc2)C1=O (centres unmarked) [2-L13, N-(1-benzyl-2-oxopiperidin-3-yl)prop-2-enamide] | 60.1 |
| C=CC(=O)N1CC[C@H](NS(C)(=O)=O)C1 [2-H21, N-[(3S)-1-(prop-2-enoyl)pyrrolidin-3-yl]methanesulfonamide] | 60.7 |
| Cc1ccc(C(=O)CN(C(=O)CCl)c2ccccc2)cc1 [4-B13, 2-chloro-N-[2-(4-methylphenyl)-2-oxoethyl]-N-phenylacetamide] | 0.038 |
| CC(Cl)C(=O)NC(Cn1cncn1)c1ccccc1 (centres unmarked) [7-M09, 2-chloro-N-[1-phenyl-2-(1H-1,2,4-triazol-1-yl)ethyl]propanamide] | 90.3 |
| Cc1ccc(C=C(C#N)C(=O)NCc2ccco2)o1 [8-P19, 2-cyano-N-[(furan-2-yl)methyl]-3-(5-methylfuran-2-yl)prop-2-enamide] | 95.3 |
| C=CC(=O)N1CCC(C(=O)Nc2ccccc2NS(C)(=O)=O)CC1 [3-C06, N-(2-methanesulfonamidophenyl)-1-(prop-2-enoyl)piperidine-4-carboxamide] | 82.7 |
| CC(Cl)C(=O)NCc1ccc(C(=O)Nc2ccc(F)cc2)cc1 (centres unmarked) [7-G19, 4-[(2-chloropropanamido)methyl]-N-(4-fluorophenyl)benzamide] | 76.3 |
| CC(=O)NC1(c2nc(C)cs2)CCN(C(=O)C(C)Cl)C1 (centres unmarked) [7-O06, N-[1-(2-chloropropanoyl)-3-(4-methyl-1,3-thiazol-2-yl)pyrrolidin-3-yl]acetamide] | 114 |
| O=C(CCl)N[C@H]1C[C@H](c2ccccc2)C1 [7-D12, 2-chloro-N-[(1r,3r)-3-phenylcyclobutyl]acetamide] | 0.742 |
| CCc1nocc1CN(C)C(=O)CCl [5-B11, 2-chloro-N-[(3-ethyl-1,2-oxazol-4-yl)methyl]-N-methylacetamide] | 1.49 |
| CC(Cl)C(=O)N1CCCC1c1nccc(C(F)(F)F)n1 (centres unmarked) [7-B11, 2-chloro-1-{2-[4-(trifluoromethyl)pyrimidin-2-yl]pyrrolidin-1-yl}propan-1-one] | 106 |
| CCn1nc(C)c(CN(C)C(=O)CCl)c1C [5-A10, 2-chloro-N-[(1-ethyl-3,5-dimethyl-1H-pyrazol-4-yl)methyl]-N-methylacetamide] | 1.55 |
| Cc1cccc(NC(=O)NC(=O)CCl)c1C [4-D21, 3-(2-chloroacetyl)-1-(2,3-dimethylphenyl)urea] | 0.759 |
| C=CC(=O)Nc1ccc(C(=O)N2CCC3(CC2)OCCCO3)cc1 [2-D16, N-(4-{1,5-dioxa-9-azaspiro[5.5]undecane-9-carbonyl}phenyl)prop-2-enamide] | 49.1 |
| C=CC(=O)N1CC2(CCOCC2)C1c1ccco1 (centres unmarked) [1-D22, 1-[1-(furan-2-yl)-7-oxa-2-azaspiro[3.5]nonan-2-yl]prop-2-en-1-one] | 72.1 |
| Cc1nc(C(NC(=O)CCl)c2ccccc2)no1 (centres unmarked) [7-F08, 2-chloro-N-[(5-methyl-1,2,4-oxadiazol-3-yl)(phenyl)methyl]acetamide] | 1.04 |
| Cc1cc(C=C2CCN(C(=O)C(C)Cl)CC2)no1 (centres unmarked) [6-N03, 2-chloro-1-{4-[(5-methyl-1,2-oxazol-3-yl)methylidene]piperidin-1-yl}propan-1-one] | 104 |
| C=CC(=O)Nc1cc(C)nn1-c1ccccc1F [2-C15, N-[1-(2-fluorophenyl)-3-methyl-1H-pyrazol-5-yl]prop-2-enamide] | 180 |
| N#Cc1cccc(C(NC(=O)CCl)C(F)(F)F)c1 (centres unmarked) [7-N04, 2-chloro-N-[1-(3-cyanophenyl)-2,2,2-trifluoroethyl]acetamide] | 0.24 |
